In ChEMBL document CHEMBL3352040, “From human immunodeficiency virus non-nucleoside reverse transcriptase inhibitors to potent and selective antitrypanosomal compounds” (Bioorg Med Chem, 2014):
The source made the active and inactive calls. The rule behind the calls is not given here.

What was measured:
Plasmodium falciparum = assay: Antiplasmodial activity against chloroquine-resistant Plasmodium falciparum K1 infected in human O positive erythrocyte assessed as reduction in parasitemia after 72 hrs; assay type: functional, organism-based; conditions: K1, 72 h
Trypanosoma cruzi = assay: Trypanocidal activity against nifurtimox-sensitive Trypanosoma cruzi Tulahuen CL2 infected in human MRC5 SV2 cells assessed as parasite growth inhibition after […] by beta-galactosidase assay; assay type: functional, organism-based
[1] = tested on: Trypanosoma brucei brucei; assay: Antitrypanocidal activity against suramin-sensitive Trypanosoma brucei brucei Squib427 assessed as reduction in parasite growth after 72 hrs; assay type: functional, organism-based; conditions: Squib427, 72 h
[2] = tested on: Trypanosoma brucei rhodesiense; assay: Antitrypanocidal activity against suramin-sensitive Trypanosoma brucei rhodesiense STIB-900 assessed as reduction in parasite growth after 72 hrs; assay type: functional, organism-based; conditions: STIB-900, 72 h
[3] = Cytotoxicity against human MRC5 SV2 cells assessed as reduction in cell growth after 72 hrs; assay type: cell-based; conditions: MRC5, 72 h
[4] = Solubility of the compound in 10 mM PBS buffer solution at pH7.4 at 3.125 to 200 uM after 2 hrs; assay type: physicochemical; conditions: pH 7.4
[5] = Octanol-phosphate buffer partition coefficient, log D of the compound at pH 7.4 after 2 hrs of shaking after 2 hrs; assay type: physicochemical
[6] = Stability of the compound in PBS buffer assessed as recovery at pH 7.4 measured after 24 hrs by UPLC analysis; assay type: physicochemical; conditions: read-out: Drug recovery
[7] = Metabolic stability in human liver microsomes assessed as compound remaining after 15 mins by UPLC analysis; assay type: ADME; conditions: read-out: Stability
[8] = Metabolic stability in mouse liver microsomes assessed as compound remaining after 15 mins by UPLC analysis; assay type: ADME; conditions: read-out: Stability
[9] = Metabolic stability in human plasma assessed as compound remaining after 1 hr; assay type: ADME, cell-free; conditions: read-out: Stability
[10] = Metabolic stability in mouse plasma assessed as compound remaining after 1 hr; assay type: ADME, cell-free; conditions: read-out: Stability
[11] = tested on: Human immunodeficiency virus 1; assay: Antiviral activity against HIV1 infected in human TZM-bl cells assessed as viral inhibition pre-incubated for 30 mins prior to infection measured after 48 hrs by; assay type: functional, organism-based; conditions: Human immunodeficiency virus 1, TZM-bl
[12] = Cytotoxicity against human TZM-bl cells assessed as cell viability after 48 hrs by WST1 assay; assay type: cell-based
Leishmania infantum = assay: Antileishmanial activity against Leishmania infantum MHOM/MA (BE)/67 infected in primary peritoneal mouse macrophages assessed as reduction in parasite burdun; assay type: functional, organism-based
[13] = tested on: Trypanosoma brucei brucei; assay: Trypanocidal activity against suramin-sensitive Trypanosoma brucei brucei Squib427 infected in Swiss mouse assessed as mean survival time at 10 mg/kg first dose through orally and next four dosed administered intraperitoneally for 4 days (reference value: 7.2 days); assay type: functional; conditions: route oral
[14] = tested on: Trypanosoma brucei brucei; assay: Trypanocidal activity against suramin-sensitive Trypanosoma brucei brucei Squib427 infected in Swiss mouse assessed as reduction in parasitemia at 10 mg/kg first dose through orally and next four dosed administered intraperitoneally for 4 days; assay type: functional; conditions: Squib427, 96 h, route oral
[15] = tested on: Trypanosoma brucei brucei; assay: Trypanocidal activity against suramin-sensitive Trypanosoma brucei brucei Squib427 infected in Swiss mouse assessed as survivors on day 14 post infection at 10 mg/kg first dose through orally and next four dosed administered intraperitoneally for 4 days; assay type: functional, organism-based; design: dose 10 mg/kg

Compound	IC50 (Plasmodium falciparum) [µM]	IC50 (Trypanosoma cruzi) [µM]	IC50 [1] [µM]	IC50 [2] [µM]	IC50 [3] [µM]	EC50 [11] [µM]	CC50 at 48 h [12] [µM]	IC50 (Leishmania infantum) [µM]	further results
CO[C@H]1O[C@@H]2O[C@@]3(C)CC[C@H]4[C@H](C)CC[C@@H]([C@H]1C)[C@@]24OO3	> 64								
CC1CS(=O)(=O)CCN1/N=C/c1ccc([N+](=O)[O-])o1 (stereo unspecified) [NIFURTIMOX]		0.7							
CCN(CC)CCCC(C)Nc1ccnc2cc(Cl)ccc12 (stereo unspecified) [CHLOROQUINE]	> 64								
Nc1nc(N)nc(Nc2ccc([As]3SCC(CO)S3)cc2)n1 (stereo unspecified) [MELARSOPROL]			0.03	0.02	7.4				solubility at 2 h [4]: 25 µM; logD at 2 h [5]: 4.51; remaining at 24 h [6]: 100%; remaining at […] [7]: 84%; remaining at […] [8]: 72%; remaining at 1 h [9]: 100%; remaining at 1 h [10]: 100%
CC(C)Nc1cccnc1N1CCN(C(=O)c2cc3cc(NS(C)(=O)=O)ccc3[nH]2)CC1 [DELAVIRDINE]	64	> 64	> 64	> 64	> 64	0.055	> 50	> 64	
Cc1cc(C)c(Nc2ccnc(Nc3ccc(C#N)cc3)n2)c(C)c1 [DAPIVIRINE]	4.88	1.25	> 16	19.5	> 64	0.002	2.47	> 64	
Cc1ccnc2c1NC(=O)c1cccnc1N2C1CC1 [NEVIRAPINE]	64	> 64	> 64	> 64	> 64	0.144	> 50	> 64	
CCCCCCCCCCCCCCCCOP(=O)([O-])OCC[N+](C)(C)C [MILTEFOSINE]								6.17	
c1ccc(Nc2ccnc(Nc3ccccc3)n2)cc1	21.8	4.45	7.27	2.53	13.2	> 10		22.2	
O=C1Nc2ccc(Cl)cc2[C@@](C#CC2CC2)(C(F)(F)F)O1 [EFAVIRENZ]	43.8	8.56	30.2	19.6	25.8		> 50	7.4	
N#Cc1ccc(NC(=O)N[C@@H]2[C@@H]3COc4c(F)ccc(F)c4[C@@H]32)nc1	64	> 64	> 64	> 64	> 64	0.001		> 64	
NS(=O)(=O)c1ccc(Oc2ccc(NC(=O)N[C@H]3[C@@H]4COc5c(F)ccc(F)c5[C@@H]43)nc2)cc1	29.5	> 64	32.1	38.5		0.001	> 100	32.5	
Cc1cc(C#N)cc(C)c1Oc1nc(Nc2ccc(C#N)cc2)nc(N)c1Br [ETRAVIRINE]	64	> 64	> 64	> 64	> 64	0.001	> 25	41.6	
Cc1ccc(C(=O)Nc2ccc(S(=O)(=O)O)c3cc(S(=O)(=O)O)cc(S(=O)(=O)O)c23)cc1NC(=O)c1cccc(NC(=O)Nc2cccc(C(=O)Nc3cc(C(=O)Nc4ccc(S(=O)(=O)O)c5cc(S(=O)(=O)O)cc(S(=O)(=O)O)c45)ccc3C)c2)c1 [SURAMIN]			0.02	0.02	> 64				MST [13]: >21 days; inhibition in vivo at 10 mg/kg [14]: 100%; Activity [15]: Active
O=C(Cn1ccnc1[N+](=O)[O-])NCc1ccccc1 [BENZNIDAZOLE]		2.56							
CCc1nn(CCO)c(CC)c1Oc1cc(C#N)cc(C#N)c1 [LERSIVIRINE]	> 64	> 64	> 64	54.7		0.003	> 100	> 64	
CC(C)=CCOc1cc(NC(=S)c2ccoc2C)ccc1Cl [UC 781]	27.4	> 64	> 64	38.5	> 64	0.003	> 100	> 64	
